Experimental data published in PubChem BioAssay (NCI).
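Values below derive from 48-hour exposures of cells grown in 96-well plates, with endpoints linearly interpolated between the two concentrations bracketing the appropriate inhibition level. GI50 marks 50% less growth. TGI marks complete inhibition of growth.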

Legend:
Test in all cases: growth of human tumour cells (NCI), 48 h; in the data active means GI50 below about 0.43 µM; inactive means the rest
786-0 renal = system: 786-0 renal
A498 renal = system: A498 renal
A549 NSCLC = system: A549 NSCLC
ACHN renal = system: ACHN renal
BT-549 breast = system: BT-549 breast
CAKI-1 renal = system: CAKI-1 renal
COLO 205 colon = system: COLO 205 colon
DU-145 prostate = system: DU-145 prostate
EKVX NSCLC = system: EKVX NSCLC
HCC-2998 colon = system: HCC-2998 colon
HCT-116 colon = system: HCT-116 colon
HCT-15 colon = system: HCT-15 colon
HOP-62 NSCLC = system: HOP-62 NSCLC
HOP-92 NSCLC = system: HOP-92 NSCLC
HS 578T breast = system: HS 578T breast
HT29 colon = system: HT29 colon
IGROV1 ovarian = system: IGROV1 ovarian
KM12 colon = system: KM12 colon
LOX IMVI melanoma = system: LOX IMVI melanoma
M14 melanoma = system: M14 melanoma
MALME-3M melanoma = system: MALME-3M melanoma
MCF7 breast = system: MCF7 breast
MDA-MB-231 breast = system: MDA-MB-231 breast
MDA-MB-435 = system: MDA-MB-435
NCI-H226 lung = system: NCI-H226 lung
NCI-H23 lung = system: NCI-H23 lung
NCI-H460 lung = system: NCI-H460 lung
NCI-H522 lung = system: NCI-H522 lung
NCI/ADR-RES ovarian = system: NCI/ADR-RES ovarian
OVCAR-3 ovarian = system: OVCAR-3 ovarian
OVCAR-4 ovarian = system: OVCAR-4 ovarian
OVCAR-5 ovarian = system: OVCAR-5 ovarian
OVCAR-8 ovarian = system: OVCAR-8 ovarian
PC-3 prostate = system: PC-3 prostate
RPMI-8226 leukemia = system: RPMI-8226 leukemia
RXF 393 renal = system: RXF 393 renal
SF-268 CNS = system: SF-268 CNS
SF-295 CNS = system: SF-295 CNS
SF-539 CNS = system: SF-539 CNS
SK-MEL-2 melanoma = system: SK-MEL-2 melanoma
SK-MEL-28 melanoma = system: SK-MEL-28 melanoma
SK-MEL-5 melanoma = system: SK-MEL-5 melanoma
SK-OV-3 ovarian = system: SK-OV-3 ovarian
SN12C renal = system: SN12C renal
SNB-19 CNS = system: SNB-19 CNS
SNB-75 CNS = system: SNB-75 CNS
SW-620 colon = system: SW-620 colon
T-47D breast = system: T-47D breast
TK-10 renal = system: TK-10 renal
U251 CNS = system: U251 CNS
UACC-257 melanoma = system: UACC-257 melanoma
UACC-62 melanoma = system: UACC-62 melanoma
UO-31 renal = system: UO-31 renal
CCRF-CEM leukemia = system: CCRF-CEM leukemia
HL-60(TB) leukemia = system: HL-60(TB) leukemia
K-562 leukemia = system: K-562 leukemia
MOLT-4 leukemia = system: MOLT-4 leukemia
SR leukemia = system: SR leukemia

O=[N+]([O-])c1ccc(N/N=C/c2ccccc2O)nc1
> 100 µM: TGI (786-0 renal) | TGI (A498 renal) | TGI (A549 NSCLC) | TGI (ACHN renal) | TGI (BT-549 breast) | TGI (COLO 205 colon) | TGI (DU-145 prostate) | TGI (EKVX NSCLC) | TGI (HCC-2998 colon) | TGI (HCT-116 colon) | TGI (HCT-15 colon) | TGI (HOP-62 NSCLC) | TGI (HOP-92 NSCLC) | TGI (HS 578T breast) | TGI (HT29 colon) | TGI (IGROV1 ovarian) | TGI (KM12 colon) | TGI (LOX IMVI melanoma) | TGI (M14 melanoma) | TGI (MALME-3M melanoma) | TGI (MCF7 breast) | TGI (MDA-MB-231 breast) | TGI (MDA-MB-435) | TGI (NCI-H226 lung) | TGI (NCI-H23 lung) | TGI (NCI-H460 lung) | TGI (NCI-H522 lung) | TGI (NCI/ADR-RES ovarian) | TGI (OVCAR-3 ovarian) | TGI (OVCAR-4 ovarian) | TGI (OVCAR-5 ovarian) | TGI (PC-3 prostate) | TGI (RPMI-8226 leukemia) | TGI (RXF 393 renal) | TGI (SF-268 CNS) | TGI (SF-295 CNS) | TGI (SF-539 CNS) | TGI (SK-MEL-2 melanoma) | TGI (SK-MEL-28 melanoma) | TGI (SK-MEL-5 melanoma) | TGI (SK-OV-3 ovarian) | TGI (SN12C renal) | TGI (SNB-19 CNS) | TGI (SNB-75 CNS) | TGI (SW-620 colon) | TGI (T-47D breast) | TGI (TK-10 renal) | TGI (U251 CNS) | TGI (UO-31 renal)
11.6 µM: TGI (UACC-62 melanoma)
25 µM: TGI (UACC-257 melanoma)
8.37 µM: TGI (CAKI-1 renal)
inactive: GI50 (786-0 renal) 3.03 µM | GI50 (A498 renal) 63.4 µM | GI50 (A549 NSCLC) 2.07 µM | GI50 (ACHN renal) 0.594 µM | GI50 (BT-549 breast) 6.08 µM | GI50 (CAKI-1 renal) 0.738 µM | GI50 (COLO 205 colon) 0.544 µM | GI50 (DU-145 prostate) 1.35 µM | GI50 (EKVX NSCLC) 3.58 µM | GI50 (HCC-2998 colon) 1.46 µM | GI50 (HCT-15 colon) 0.639 µM | GI50 (HOP-62 NSCLC) 4.5 µM | GI50 (HOP-92 NSCLC) 3.74 µM | GI50 (HS 578T breast) > 100 µM | GI50 (HT29 colon) 0.975 µM | GI50 (IGROV1 ovarian) 2.7 µM | GI50 (KM12 colon) 1.19 µM | GI50 (LOX IMVI melanoma) 0.92 µM | GI50 (M14 melanoma) 1.66 µM | GI50 (MALME-3M melanoma) 5.8 µM | GI50 (MCF7 breast) 0.928 µM | GI50 (MDA-MB-231 breast) 1.46 µM | GI50 (MDA-MB-435) 3.03 µM | GI50 (NCI-H226 lung) 4.6 µM | GI50 (NCI-H23 lung) 2.45 µM | GI50 (NCI-H460 lung) 1.02 µM | GI50 (OVCAR-5 ovarian) 7.33 µM | GI50 (PC-3 prostate) 4.3 µM | GI50 (RPMI-8226 leukemia) 0.86 µM | GI50 (RXF 393 renal) 3.48 µM | GI50 (SF-268 CNS) 1.26 µM | GI50 (SF-295 CNS) 2.92 µM | GI50 (SF-539 CNS) 2.68 µM | GI50 (SK-MEL-2 melanoma) 3 µM | GI50 (SK-MEL-28 melanoma) 4.38 µM | GI50 (SK-MEL-5 melanoma) 1.61 µM | GI50 (SK-OV-3 ovarian) 2.54 µM | GI50 (SN12C renal) 2.17 µM | GI50 (SNB-19 CNS) 3.88 µM | GI50 (SNB-75 CNS) 10.6 µM | GI50 (SW-620 colon) 1.14 µM | GI50 (T-47D breast) 3.2 µM | GI50 (TK-10 renal) 3.43 µM | GI50 (U251 CNS) 1.69 µM | GI50 (UACC-257 melanoma) 3.13 µM | GI50 (UACC-62 melanoma) 2.61 µM | GI50 (UO-31 renal) 0.623 µM
51.2 µM: TGI (OVCAR-8 ovarian)
active: GI50 (HCT-116 colon) 0.371 µM | GI50 (NCI-H522 lung) 0.289 µM | GI50 (NCI/ADR-RES ovarian) 0.373 µM | GI50 (OVCAR-3 ovarian) 0.368 µM | GI50 (OVCAR-4 ovarian) 0.408 µM | GI50 (OVCAR-8 ovarian) 0.407 µM

CCOC(=O)c1c(SC)nc(-c2ccc(Cl)cc2)sc1=N
73.9 µM: TGI (HCT-15 colon)
61.9 µM: TGI (PC-3 prostate)
52.7 µM: TGI (SK-MEL-2 melanoma)
78.7 µM: TGI (HL-60(TB) leukemia)
95.7 µM: TGI (HOP-62 NSCLC)
72 µM: TGI (HCT-116 colon)
83.4 µM: TGI (MCF7 breast)
80.4 µM: TGI (NCI-H226 lung)
38.8 µM: TGI (SK-MEL-5 melanoma)
80 µM: TGI (OVCAR-8 ovarian)
49 µM: TGI (MALME-3M melanoma)
73.5 µM: TGI (NCI/ADR-RES ovarian)
99.4 µM: TGI (SNB-75 CNS)
55.2 µM: TGI (EKVX NSCLC)
> 100 µM: TGI (786-0 renal) | TGI (A498 renal) | TGI (A549 NSCLC) | TGI (ACHN renal) | TGI (BT-549 breast) | TGI (CAKI-1 renal) | TGI (CCRF-CEM leukemia) | TGI (DU-145 prostate) | TGI (HOP-92 NSCLC) | TGI (HS 578T breast) | TGI (HT29 colon) | TGI (K-562 leukemia) | TGI (KM12 colon) | TGI (LOX IMVI melanoma) | TGI (M14 melanoma) | TGI (MDA-MB-231 breast) | TGI (MDA-MB-435) | TGI (NCI-H460 lung) | TGI (OVCAR-3 ovarian) | TGI (OVCAR-4 ovarian) | TGI (OVCAR-5 ovarian) | TGI (RPMI-8226 leukemia) | TGI (RXF 393 renal) | TGI (SF-268 CNS) | TGI (SF-295 CNS) | TGI (SF-539 CNS) | TGI (SK-MEL-28 melanoma) | TGI (SK-OV-3 ovarian) | TGI (SN12C renal) | TGI (SNB-19 CNS) | TGI (SW-620 colon) | TGI (T-47D breast) | TGI (TK-10 renal) | TGI (U251 CNS) | TGI (UACC-257 melanoma) | TGI (UACC-62 melanoma) | TGI (UO-31 renal)
54.5 µM: TGI (IGROV1 ovarian)
80.3 µM: TGI (NCI-H23 lung)
63.9 µM: TGI (HCC-2998 colon)
94 µM: TGI (MOLT-4 leukemia)
44.9 µM: TGI (COLO 205 colon)

CC(C)(C)OC(=O)N(CCCCNC(=O)c1ccccc1)CCCNC(=O)c1ccccc1
> 100 µM: TGI (786-0 renal) | TGI (A498 renal) | TGI (A549 NSCLC) | TGI (ACHN renal) | TGI (BT-549 breast) | TGI (CAKI-1 renal) | TGI (CCRF-CEM leukemia) | TGI (COLO 205 colon) | TGI (DU-145 prostate) | TGI (EKVX NSCLC) | TGI (HCC-2998 colon) | TGI (HCT-116 colon) | TGI (HCT-15 colon) | TGI (HL-60(TB) leukemia) | TGI (HOP-62 NSCLC) | TGI (HOP-92 NSCLC) | TGI (HS 578T breast) | TGI (HT29 colon) | TGI (IGROV1 ovarian) | TGI (K-562 leukemia) | TGI (KM12 colon) | TGI (M14 melanoma) | TGI (MCF7 breast) | TGI (MDA-MB-231 breast) | TGI (MDA-MB-435) | TGI (MOLT-4 leukemia) | TGI (NCI-H226 lung) | TGI (NCI-H23 lung) | TGI (NCI-H460 lung) | TGI (NCI-H522 lung) | TGI (NCI/ADR-RES ovarian) | TGI (OVCAR-3 ovarian) | TGI (OVCAR-4 ovarian) | TGI (OVCAR-5 ovarian) | TGI (OVCAR-8 ovarian) | TGI (PC-3 prostate) | TGI (RPMI-8226 leukemia) | TGI (RXF 393 renal) | TGI (SF-268 CNS) | TGI (SF-295 CNS) | TGI (SF-539 CNS) | TGI (SK-MEL-2 melanoma) | TGI (SK-MEL-28 melanoma) | TGI (SK-MEL-5 melanoma) | TGI (SK-OV-3 ovarian) | TGI (SN12C renal) | TGI (SNB-19 CNS) | TGI (SNB-75 CNS) | TGI (SR leukemia) | TGI (SW-620 colon) | TGI (T-47D breast) | TGI (TK-10 renal) | TGI (U251 CNS) | TGI (UACC-257 melanoma) | TGI (UACC-62 melanoma) | TGI (UO-31 renal)
